“Also recorded” adds a separate entry of the source.
Columns and labels:
[1] = system: histone H3 Tyr99-phosphorylation (ACK1); experiment: Histone H3 Tyr99-phosphorylation in HEK293 cells (pY99-H3 immunoprecipitation / H3 immunoblot); assay type: cell-based; conditions: HEK293 cells
Protocol: FIGS. 3A-3E show Ack1 phosphoryltes H3 at Tyr99 residue. […] (FIG. 3B) HEK293 cells co-expressing Myc-tagged Ack1 (WT) or KD mutant ACK1 and FLAG-tagged H3 or Y99F mutant […] were serum-starved (24h) and lysates were immunoprecipitated with pY99-H3 antibodies followed by immunoblotting with FLAG antibody (top panel). (FIG. 3C) HEK293 cells were treated with EGF ligand for indicated time points. Equal amounts of lysates were immunoprecipitated pY99-H3 antibodies followed by with immunoblotting with H3 antibody (top panel). (FIG. 3D) HEK293 cells were treated with ACK1 inhibitor, AIM-100 (5 uM overnight) and/or EGF ligand 20 min. Equal amounts of lysates were immunoprecipitated pY99-H3 antibodies followed by with immunoblotting with H3 antibody (top panel). […] (FIG. 3E) HEK293 cells were treated with increasing concentrations of AIM-100 (1, 2, 3 and 5 μM). Equal amounts of lysates were immunoprecipitated pY99-H3 antibodies followed by with immunoblotting with H3 antibody (top panel).
The Tyrosine99 or Y99 site in H3 protein is evolutionarily conserved (FIG. 3A). To examine whether H3 is ACK1 kinase substrate, HEK293 cells were co-transfected with HA-tagged ACK1 and FLAG-tagged H3 or FLAG-tagged Y99F mutant H3 expressing constructs. ACK I specifically phosphorylated H3 protein, but not the Y99F mutant protein (FIG. 3B). […]

[2] = system: histone H3 Tyr99-phosphorylation (ACK1); experiment: Histone H3 Tyr99-phosphorylation in JAR cells (immunoblotting); assay type: cell-based, human; conditions: EGF+AIM-100
Protocol: FIGS. 5A-5D show ACK1 deposits pY99-H3 epigenetic marks in SLC6A4 promoter and intron 2. (FIG. 5A) Lysates prepared from JAR cells treated with EGF ligand were subjected to immunoblotting with indicated antibodies. (FIG. 5B) Lysates prepared from JAR cells treated with EGF or AIM-100 were subjected to immunoblotting with indicated antibodies. (FIG. 5C) Total RNA was prepared from JAR cells untreated or treated with EGF ligand followed by quantitative RT-PCR using SLC6A4 and actin primers. The ratio of SLC6A4 to actin is shown. (FIG. 5D) JAR cells were treated with EGF ligand and ChIP was performed using pY99-H3 antibodies followed by quantitative PCR using primers corresponding to intron 2 (VNTR).
JAR cells are human placenta-derived epithelial cells that express SLC6A4 or SERT. Applicant first assessed presence of ACK1 signaling in JAR cells by treating these cells with EGF ligand. […] ACK1 activation was also reflected in histone H3 Tyr99-phosphorylation (FIG. SA, 2nd panel).
To validate critical role of ACK1 in histone H3 Tyr99-phosphoryation, JAR cells were treated with EGF or EGF+AIM-100.

SLC6A4 mRNA = SLC6A4 mRNA expression (real time RT-PCR); assay type: cell-based, human; conditions: inhibition of ACK1 by small molecule inhibitor
Protocol: The ratio of SLC6A4 to actin is shown. (FIG. 5D) JAR cells were treated with EGF ligand and ChIP was performed using pY99-H3 antibodies followed by quantitative PCR using primers corresponding to intron 2 (VNTR). […]
Applicant also identified for the first time that human and mouse serotonin transporter (SLC6A4 or SERT or 5-HTT) gene expression is regulated by ACK1. A novel mechanism was identified that is operational in SLC6A4 gene regulation. ACK1 deposits pY99-H3 epigenetic marks in promoter (5-HTTLPR) and intron 2 (VNTR) of SLC6A4 gene to regulate its transcription. […] Without being bound by theory, applicant believes that expression of Gabra6, Slc6a2, Slc6a4, Slc6a5 and Oxt genes as well as genes shown in Table 2 are also regulated by ACK1/pY99-H3 epigenetic activity/signaling.

AR protein levels = AR protein levels in androgen deprived prostate cancer cells (immunoblotting); assay type: cell-based, human; conditions: androgen deprived LNCaP and VCaP cells, 2.5, 5 and 10 uM
Protocol: (FIG. 6A) Androgen starved LAPC4 cells were treated with DHT (10 nM, 16 Hrs), AIM-100, DZI-067, Enzalutamide or PLX4032 (7 uM, 36 Hr) and AR, pACK1 and Actin levels were determined by immunoblotting (IB). The relative level of AR is shown below. (FIG. 6B) Androgen deprived LNCaP and VCaP cell were untreated or treated with 2.5, 5 and 10 uM of AIM-100 and lysates were immunoblotted. The quantitation of AR expression is shown. (FIG. 6C) Androgen deprived LNCaP and VCaP cell were untreated or treated with 2.5, 5 and 10 uM of DZI-067 and lysates were immunoblotted. The quantitation of AR expression is shown. (FIG. 6D) LNCaP cells were transfected with control and Ack1 siRNAs followed by immunoblotting. (FIG. 6E) LNCaP cells treated with AIM-100 (7 uM, 16 hr) or MG 132 (10 uM, 6 hr) were immunoblotted with AR antibodies. […]
AR has been known to interact with an ubiquitin E3 ligase, RNF6, causing AR ubiquitination, which in turn promoted AR transcriptional activity (Xu, K. et al. (2009) Cancer Cell 15(4):270-282). To determine whether post-translational modification has role to play in suppression of AR levels upon Ack1 kinase inhibition, LNCaP cells were treated with proteosomal inhibitor, MG-132 and AR levels were measured in presence or absence of AIM-100.

AR mRNA = AR mRNA levels in androgen-deprived prostate cancer cells (qPCR with AR primers); assay type: cell-based, human; conditions: androgen-deprived LAPC4 and LNCaP cells, overnight treatment

c1ccc(-c2oc3ncnc(NC[C@@H]4CCCO4)c3c2-c2ccccc2)cc1 [AIM-100]
concentration resulting in complete loss of pY99-H3 ([1]; increasing concentrations of inhibitor): 0.5 μM | histone H3 Tyr99-phosphorylation ([1]; inhibitor 5 uM overnight, EGF ligand 20 min): complete loss of histone H3 Tyr99-phosphorylation; also recorded: suppressed histone H3 Tyr99-phosphorylation | histone H3 Tyr99-phosphorylation [2]: almost complete loss of histone phosphorylation | SLC6A4 mRNA expression (SLC6A4 mRNA): significant loss of SLC6A4 mRNA expression | AR protein levels (AR protein levels): concomitant decrease in AR protein levels | AR mRNA levels (AR mRNA): significantly suppressed

Reference: patent US20190212343A1, “METHODS FOR THE TREATMENT OF DISORDERS RELATED TO PHOSPHORYLATION OF HISTONES” (H. LEE MOFFITT CANCER CENTER AND RESEARCH INSTITUTE, INC., priority 2014, published 2019)
